ChEMBL document CHEMBL3091415, “Aza-cycloisodityrosine analogue of RA-VII, an antitumor bicyclic hexapeptide” (Bioorg Med Chem Lett, 2013)
In brackets after ≈: the same amount, converted by molar mass.

Assays:
HCT-116 = test: Cytotoxicity against human HCT116 cells after 48 hrs by MTT assay; assay type: functional, cell-based; details: HCT-116, 48 h
HL-60 = test: Cytotoxicity against human HL60 cells after 48 hrs by MTT assay; assay type: functional, cell-based; details: HL-60, 48 h

COc1ccc(C[C@H]2C(=O)N[C@@H](C)C(=O)N(C)[C@H]3Cc4ccc(cc4)Nc4cc(ccc4OC)C[C@@H](C(=O)N[C@H](C)C(=O)N[C@@H](C)C(=O)N2C)N(C)C3=O)cc1
IC50 (HCT-116): 0.017 mg/L (≈ 0.0221 µM) | IC50 (HL-60): 0.018 mg/L (≈ 0.0234 µM)

COc1ccc(C[C@H]2C(=O)N[C@@H](C)C(=O)N(C)[C@H]3Cc4ccc(cc4)Oc4cc(ccc4OC)C[C@@H](C(=O)N[C@H](C)C(=O)N[C@@H](C)C(=O)N2C)N(C)C3=O)cc1
IC50 (HCT-116): 0.0033 mg/L (≈ 0.00428 µM) | IC50 (HL-60): 0.0025 mg/L (≈ 0.00324 µM)
